Literature values, collected in patent publication EP0062861A1, “Isophorone-free formulations of the herbicide propanyl” (Montedison S.p.A., priority 1981, dated 1982).

Test system: mammalians
Conditions: toxicity towards mammalians

In the case of `CCC(=O)Nc1ccc(Cl)c(Cl)c1` [Propanyl, N-(3,4-dichlorophenyl)-propionamide], the “LD 50” value is listed as 1384 mg/kg.
